We go through two compounds from US9321722B2, “Bis-indolic derivatives, their uses in particular as antibacterials” (UNIVERSITE JOSEPH FOURIER, priority 2011, dated 2016).

In brackets after ≈: the same amount, converted by molar mass.

Usually MIC stands for the lowest concentration that inhibits growth of the organism. A high value points to a less susceptible organism. What is called IC50 is the concentration needed to halve the response being measured.

Holding throughout (assay type): cell-based
For assay [1], the system named is Staphylococcus aureus ATCC 106414 (VISA). Kind of assay: MIC, Staphylococcus panel (Table I-2). The note with it: 18 h, 4% DMSO. How it is done: (§1) We used the previously described protocol, with subtle modifications. The microdilution method recommended by the Clinical and Laboratory Standard Institute [M07-A9, Vol. 32, N^o 2] was used. The activity of bis-indolic compounds was tested against 35 bacterial strains belonging to 12 different Staphylococcus species.
(§2) Bacterial inocula were prepared in Mueller Hinton broth (MH2, BioMerieux, Marcy L'Etoile, France). They were dispensed in 96 well microtiter plates (5×10^5 CFU/ml of final inoculum, 192 μL per well). Indolic compounds diluted in pure DMSO (8 μL per well, concentrated 25 times) were added to the wells as to obtain two-fold serial concentrations (0.5-32 mg/L of final concentrations). The final concentration of DMSO was 4% in each well.
(§3) To avoid cross-contaminations in microtiter plates, one row was left blank between each strain tested. Microplates were incubated for 18 h at 37° C. in ambient air or at 37° C. in 5% CO2 enriched atmosphere for fastidious species. Then MICs were read visually and, in case of visual reading difficulties, confirmed using a spectrophotometer at a wavelength of 630 nm (BioTek® EL808 Absorbance Microplate Reader). MICs corresponded to the minimum bis-indolic compound concentration that allowed complete visual growth inhibition of bacteria. Drug-free cultures served as growth controls.
(§4) We used four Staphylococcus aureus strains. Two reference strains were provided by the French reference center for Staphylococcus spp. (Lyon, France), including one methicillin-susceptible (MSSA 476) and one methicillin-resistant (MRSA 252) S. aureus strains. The two remaining S. aureus strains were purchased from the CRBIP (Centre de Ressources Biologiques de l'Institut Pasteur): a vancomycin-intermediate strain (ATCC 106414) and a S. aureus strain (SA-1199B) resistant to fluoroquinolones due to overexpression of the NorA multidrug efflux pump.

In assay [2] the test system is Staphylococcus aureus MSSA 476. Kind of assay: MIC, Staphylococcus panel (Table I-2). The note with it: 18 h, 4% DMSO. The protocol:
as §1, §2, §3, §4

The subject of assay [3] is Staphylococcus aureus SA-1199B (NorA). In words: MIC, Staphylococcus panel (Table I-2). The note with it: 18 h. How it is done: as §1, §2, §3, §4
Assay [4] concerns HCT116 (human colon tumor). In words: In vitro cytotoxicity. The note with it: HCT-116, HCT116, in DMSO, duplicate.

In the case of `CC(C)(C)OC(=O)NCC(NC(=O)C(=O)c1c[nH]c2ccc(Br)cc12)c1c[nH]c2ccc(Br)cc12` (centres unmarked) [Compound 4, tert-Butyl(2-(5-bromo-1H-indol-3-yl)-2-(2-(5-bromo-1H-indol-3-yl)-2-oxoacetamido)ethyl) carbamate], the MIC in assay [1], in assay [2] and in assay [3] was 1 µg/mL (≈ 1.65 µM) each time. In assay [4], this compound yielded a half-maximal inhibitory concentration (IC50) of 4.55 µM.

`CC(NC(=O)C(=O)c1c[nH]c2ccc(Br)cc12)c1c[nH]c2ccc(Br)cc12` (centres unmarked) [Compound 5, 2-(5-Bromo-1H-indol-3-yl)-N-(1-(5-bromo-1H-indol-3-yl)ethyl)-2-oxoacetamide]: the MIC in assay [1] is 1 µg/mL (≈ 2.04 µM); in assay [2], 2 µg/mL (≈ 4.09 µM); in assay [3], 2 µg/mL (≈ 4.09 µM). The concentration for half-maximal inhibition (IC50) in assay [4] came to 10.1 µM.
